The values that follow come from the supplement of paper PMC10307832.

For one experiment, the system named is NCI-H2342. Description: relative viability (nuclei count vs DMSO), 5 days (fraction); higher = more cells survive. Particulars: first compound 0.08 µM. In short, it runs like this: (§1)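 Relative viability equals treated-well nuclei counts divided by vehicle-well nuclei counts. Counts came from 4× images of lung cancer cell lines grown in 1536-well plates for 5 days after pin-tool dosing on the day after seeding. Dosing used one drug alone or a fixed anchor-drug dose plus five library-drug doses (not always all listed) in √10 steps, and values are medians of duplicate plates.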
Regarding `CCCCCCCCCCCC1=C(O)C(=O)C=C(O)C1=O` [Embelin] + O=C(CCCCCCC(=O)Nc1ccccc1)NO [Vorinostat] (partner 1 µM), the relative viability turned out to be 0.766.

`CCCCCCCCCCCC1=C(O)C(=O)C=C(O)C1=O` [Embelin] + Cc1cc(Nc2cc(N3CCN(C)CC3)nc(Sc3ccc(NC(=O)C4CC4)cc3)n2)n[nH]1 [Tozasertib] (partner 0.1 µM) yielded a relative viability of 0.6.

In the case of `CCCCCCCCCCCC1=C(O)C(=O)C=C(O)C1=O` [Embelin] + COc1cc2c(Oc3ccc(NC(=O)C4(C(=O)Nc5ccc(F)cc5)CC4)cc3F)ccnc2cc1OCCCN1CCOCC1 [Foretinib] (partner 0.25 µM), the relative viability was determined as 1.12.

The experiment is the same for the next values; noted with them: first compound 0.8 µM.
As to `CCCCCCCCCCCC1=C(O)C(=O)C=C(O)C1=O` [Embelin] + O=C(CCCCCCC(=O)Nc1ccccc1)NO [Vorinostat] (partner 1 µM), the relative viability was determined as 0.828.

Molecule `CCCCCCCCCCCC1=C(O)C(=O)C=C(O)C1=O` [Embelin] + Cc1cc(Nc2cc(N3CCN(C)CC3)nc(Sc3ccc(NC(=O)C4CC4)cc3)n2)n[nH]1 [Tozasertib] (partner 0.1 µM) registered a relative viability of 0.641.

Take `CCCCCCCCCCCC1=C(O)C(=O)C=C(O)C1=O` [Embelin] + COc1cc2c(Oc3ccc(NC(=O)C4(C(=O)Nc5ccc(F)cc5)CC4)cc3F)ccnc2cc1OCCCN1CCOCC1 [Foretinib] (partner 0.25 µM): the relative viability came to 1.12.

The same experiment, now with this note: first compound 2.53 µM.
In turn, `CCCCCCCCCCCC1=C(O)C(=O)C=C(O)C1=O` [Embelin] + O=C(CCCCCCC(=O)Nc1ccccc1)NO [Vorinostat] (partner 1 µM) had a relative viability of 0.887.

In turn, `CCCCCCCCCCCC1=C(O)C(=O)C=C(O)C1=O` [Embelin] + Cc1cc(Nc2cc(N3CCN(C)CC3)nc(Sc3ccc(NC(=O)C4CC4)cc3)n2)n[nH]1 [Tozasertib] (partner 0.1 µM) showed a relative viability of 0.527.

Molecule `CCCCCCCCCCCC1=C(O)C(=O)C=C(O)C1=O` [Embelin] + COc1cc2c(Oc3ccc(NC(=O)C4(C(=O)Nc5ccc(F)cc5)CC4)cc3F)ccnc2cc1OCCCN1CCOCC1 [Foretinib] (partner 0.25 µM) yielded a relative viability of 1.18.

Still in this experiment, the particulars now being: first compound 8 µM.
Molecule `CCCCCCCCCCCC1=C(O)C(=O)C=C(O)C1=O` [Embelin] + O=C(CCCCCCC(=O)Nc1ccccc1)NO [Vorinostat] (partner 1 µM) registered a relative viability of 0.73.

`CCCCCCCCCCCC1=C(O)C(=O)C=C(O)C1=O` [Embelin] + Cc1cc(Nc2cc(N3CCN(C)CC3)nc(Sc3ccc(NC(=O)C4CC4)cc3)n2)n[nH]1 [Tozasertib] (partner 0.1 µM) showed a relative viability of 0.479.

Turning to `CCCCCCCCCCCC1=C(O)C(=O)C=C(O)C1=O` [Embelin] + COc1cc2c(Oc3ccc(NC(=O)C4(C(=O)Nc5ccc(F)cc5)CC4)cc3F)ccnc2cc1OCCCN1CCOCC1 [Foretinib] (partner 0.25 µM), the relative viability stood at 1.07.

The next experiment deals with HARA. The experiment is described as above. Particulars: first compound 0.08 µM. In short, it runs like this: as §1
`CCCCCCCCCCCC1=C(O)C(=O)C=C(O)C1=O` [Embelin] + O=C(CCCCCCC(=O)Nc1ccccc1)NO [Vorinostat] (partner 1 µM) returned a relative viability of 0.559.

The molecule `CCCCCCCCCCCC1=C(O)C(=O)C=C(O)C1=O` [Embelin] + Cc1cc(Nc2cc(N3CCN(C)CC3)nc(Sc3ccc(NC(=O)C4CC4)cc3)n2)n[nH]1 [Tozasertib] (partner 0.1 µM) came in with a relative viability of 0.106.

As to `CCCCCCCCCCCC1=C(O)C(=O)C=C(O)C1=O` [Embelin] + COc1cc2c(Oc3ccc(NC(=O)C4(C(=O)Nc5ccc(F)cc5)CC4)cc3F)ccnc2cc1OCCCN1CCOCC1 [Foretinib] (partner 0.25 µM), the relative viability was 0.827.

Molecule `CCCCCCCCCCCC1=C(O)C(=O)C=C(O)C1=O` [Embelin] + CS(=O)(=O)N1CCN(Cc2cc3nc(-c4cccc5[nH]ncc45)nc(N4CCOCC4)c3s2)CC1 [Pictilisib] (partner 1 µM) had a relative viability of 0.604.

The molecule `CCCCCCCCCCCC1=C(O)C(=O)C=C(O)C1=O` [Embelin] + C[C@@H](Oc1cc(-c2cnn(C3CCNCC3)c2)cnc1N)c1c(Cl)ccc(F)c1Cl [Crizotinib] (partner 1 µM) yielded a relative viability of 1.03.

The same experiment, now with this note: first compound 0.8 µM.
With `CCCCCCCCCCCC1=C(O)C(=O)C=C(O)C1=O` [Embelin] + O=C(CCCCCCC(=O)Nc1ccccc1)NO [Vorinostat] (partner 1 µM), the relative viability stood at 0.603.

`CCCCCCCCCCCC1=C(O)C(=O)C=C(O)C1=O` [Embelin] + Cc1cc(Nc2cc(N3CCN(C)CC3)nc(Sc3ccc(NC(=O)C4CC4)cc3)n2)n[nH]1 [Tozasertib] (partner 0.1 µM) registered a relative viability of 0.105.

For the molecule `CCCCCCCCCCCC1=C(O)C(=O)C=C(O)C1=O` [Embelin] + COc1cc2c(Oc3ccc(NC(=O)C4(C(=O)Nc5ccc(F)cc5)CC4)cc3F)ccnc2cc1OCCCN1CCOCC1 [Foretinib] (partner 0.25 µM), the relative viability amounted to 0.968.

`CCCCCCCCCCCC1=C(O)C(=O)C=C(O)C1=O` [Embelin] + CS(=O)(=O)N1CCN(Cc2cc3nc(-c4cccc5[nH]ncc45)nc(N4CCOCC4)c3s2)CC1 [Pictilisib] (partner 1 µM) gave a relative viability of 0.586.

For the molecule `CCCCCCCCCCCC1=C(O)C(=O)C=C(O)C1=O` [Embelin] + C[C@@H](Oc1cc(-c2cnn(C3CCNCC3)c2)cnc1N)c1c(Cl)ccc(F)c1Cl [Crizotinib] (partner 1 µM), the relative viability was 1.08.

Still in this experiment, the particulars now being: first compound 2.53 µM.
With `CCCCCCCCCCCC1=C(O)C(=O)C=C(O)C1=O` [Embelin] + O=C(CCCCCCC(=O)Nc1ccccc1)NO [Vorinostat] (partner 1 µM), the relative viability stood at 0.545.

`CCCCCCCCCCCC1=C(O)C(=O)C=C(O)C1=O` [Embelin] + Cc1cc(Nc2cc(N3CCN(C)CC3)nc(Sc3ccc(NC(=O)C4CC4)cc3)n2)n[nH]1 [Tozasertib] (partner 0.1 µM) showed a relative viability of 0.119.

Take `CCCCCCCCCCCC1=C(O)C(=O)C=C(O)C1=O` [Embelin] + COc1cc2c(Oc3ccc(NC(=O)C4(C(=O)Nc5ccc(F)cc5)CC4)cc3F)ccnc2cc1OCCCN1CCOCC1 [Foretinib] (partner 0.25 µM): the relative viability is 1.18.

`CCCCCCCCCCCC1=C(O)C(=O)C=C(O)C1=O` [Embelin] + CS(=O)(=O)N1CCN(Cc2cc3nc(-c4cccc5[nH]ncc45)nc(N4CCOCC4)c3s2)CC1 [Pictilisib] (partner 1 µM) registered a relative viability of 0.489.

As for `CCCCCCCCCCCC1=C(O)C(=O)C=C(O)C1=O` [Embelin] + C[C@@H](Oc1cc(-c2cnn(C3CCNCC3)c2)cnc1N)c1c(Cl)ccc(F)c1Cl [Crizotinib] (partner 1 µM), the relative viability worked out at 1.12.

The experiment is the same for the next values; noted with them: first compound 8 µM.
For the molecule `CCCCCCCCCCCC1=C(O)C(=O)C=C(O)C1=O` [Embelin] + O=C(CCCCCCC(=O)Nc1ccccc1)NO [Vorinostat] (partner 1 µM), the relative viability worked out at 0.582.

Molecule `CCCCCCCCCCCC1=C(O)C(=O)C=C(O)C1=O` [Embelin] + Cc1cc(Nc2cc(N3CCN(C)CC3)nc(Sc3ccc(NC(=O)C4CC4)cc3)n2)n[nH]1 [Tozasertib] (partner 0.1 µM) gave a relative viability of 0.133.
